“And” between values parts separate entries of the source, which are not always exact repeats. Equal values may be shown once. Read-outs that look alike come from different tables or passages of the source.
Experiments:
HKU1-CoV 3CL^pro = HKU1-CoV 3CL^pro (Human coronavirus HKU1, UniProt P0C6X2); assay: biochemical
HKU5-CoV 3CL^pro = HKU5-CoV 3CL^pro (Bat coronavirus HKU5, UniProt P0C6W4); type: biochemical; settings: for Initial Velocity: triplicate, listed as Compound F2
HKU9-CoV 3CL^pro = HKU9-CoV 3CL^pro (Bat coronavirus HKU9, UniProt P0C6W5); type: biochemical; settings: for Initial Velocity: triplicate, listed as Compound F2
IBV-CoV 3CL^pro = IBV-CoV 3CL^pro (Avian infectious bronchitis virus, UniProt P0C6Y1); assay: biochemical; settings: for Initial Velocity: triplicate, listed as Compound F2
CYP2B6 = target: T1, CYP2B6 (Homo sapiens, UniProt P20813); assay: Reversible CYP inhibition in human liver microsomes; type: in vitro ADME; settings: for activity at 0.1 µM: pH 7.4, CYP 2B6, 0.1 µM; for activity at 0.1 µM / activity at 0.214 µM / activity at 0.979 µM / activity at 2.09 µM / activity at 4.48 µM / activity at 20.5 µM / activity at 43.8 µM / activity at 93.5 µM / activity at 200 µM: read-out: Percent of Control Activity; for activity at 0.214 µM: pH 7.4, CYP 2B6, 0.214 µM; for activity at 0.979 µM: pH 7.4, CYP 2B6, 0.979 µM; for activity at 2.09 µM: pH 7.4, CYP 2B6, 2.09 µM; for activity at 4.48 µM: pH 7.4, CYP 2B6, 4.48 µM; for activity at 20.5 µM: pH 7.4, CYP 2B6, 20.5 µM; for activity at 43.8 µM: pH 7.4, CYP 2B6, 43.8 µM; for activity at 93.5 µM: pH 7.4, CYP 2B6, 93.5 µM; for activity at 200 µM: pH 7.4, CYP 2B6, 200 µM
T1 sequence (P20813 1-491): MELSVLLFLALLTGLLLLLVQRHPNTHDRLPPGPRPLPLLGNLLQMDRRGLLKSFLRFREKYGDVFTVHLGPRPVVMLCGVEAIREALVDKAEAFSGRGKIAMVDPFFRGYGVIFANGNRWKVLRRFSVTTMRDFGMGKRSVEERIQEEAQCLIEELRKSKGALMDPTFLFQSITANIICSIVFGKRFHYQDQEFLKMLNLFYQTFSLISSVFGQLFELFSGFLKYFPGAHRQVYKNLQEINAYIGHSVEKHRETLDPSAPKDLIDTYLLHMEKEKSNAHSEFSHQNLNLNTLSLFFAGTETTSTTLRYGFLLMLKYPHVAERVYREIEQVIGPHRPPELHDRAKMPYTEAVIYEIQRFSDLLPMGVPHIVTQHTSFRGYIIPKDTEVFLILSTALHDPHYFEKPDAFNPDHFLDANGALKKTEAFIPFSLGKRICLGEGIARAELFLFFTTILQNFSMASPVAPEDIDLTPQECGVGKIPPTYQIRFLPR

[1] = Liver microsome binding by equilibrium dialysis; settings: for fraction unbound at 6 h: human, human liver microsomes, fu
[2] = Rat 4-day continuous intravenous infusion exploratory non-GLP toxicity study
[3] = human, human liver microsomes, 30-Minute Preincubation
[4] = human, human liver microsomes, Zero-Minute Preincubation

Sequence of HKU5-CoV 3CL^pro (P0C6W4 3339-3644 limits assumed): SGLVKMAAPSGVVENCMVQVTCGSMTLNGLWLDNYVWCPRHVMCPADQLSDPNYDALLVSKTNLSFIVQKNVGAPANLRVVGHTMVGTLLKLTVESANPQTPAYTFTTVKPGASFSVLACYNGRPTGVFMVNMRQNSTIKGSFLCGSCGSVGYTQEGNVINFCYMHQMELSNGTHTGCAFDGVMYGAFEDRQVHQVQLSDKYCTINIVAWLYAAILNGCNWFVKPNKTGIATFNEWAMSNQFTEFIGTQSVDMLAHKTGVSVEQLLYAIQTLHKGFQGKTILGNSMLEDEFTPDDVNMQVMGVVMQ
Sequence of HKU9-CoV 3CL^pro (P0C6W5 3104-3409 limits assumed): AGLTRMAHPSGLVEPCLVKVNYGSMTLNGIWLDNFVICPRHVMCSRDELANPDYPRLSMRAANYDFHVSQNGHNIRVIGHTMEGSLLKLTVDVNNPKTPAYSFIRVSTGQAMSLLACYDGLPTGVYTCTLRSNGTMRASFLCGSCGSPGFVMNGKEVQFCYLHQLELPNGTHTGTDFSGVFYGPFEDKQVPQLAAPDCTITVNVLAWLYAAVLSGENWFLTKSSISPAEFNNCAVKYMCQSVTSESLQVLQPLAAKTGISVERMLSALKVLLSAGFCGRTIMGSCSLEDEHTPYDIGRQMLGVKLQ
Sequence of IBV-CoV 3CL^pro (P0C6Y1 2780-3086): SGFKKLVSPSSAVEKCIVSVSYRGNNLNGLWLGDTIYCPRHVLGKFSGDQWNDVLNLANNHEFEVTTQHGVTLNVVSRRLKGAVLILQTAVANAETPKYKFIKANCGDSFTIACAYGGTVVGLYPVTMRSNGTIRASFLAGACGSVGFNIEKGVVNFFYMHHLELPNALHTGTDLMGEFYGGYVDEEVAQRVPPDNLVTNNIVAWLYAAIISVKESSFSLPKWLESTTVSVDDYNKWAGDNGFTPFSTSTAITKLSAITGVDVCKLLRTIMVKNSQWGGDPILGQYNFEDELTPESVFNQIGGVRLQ
Sequence of HKU1-CoV 3CL^pro (P0C6X2 3335-3637): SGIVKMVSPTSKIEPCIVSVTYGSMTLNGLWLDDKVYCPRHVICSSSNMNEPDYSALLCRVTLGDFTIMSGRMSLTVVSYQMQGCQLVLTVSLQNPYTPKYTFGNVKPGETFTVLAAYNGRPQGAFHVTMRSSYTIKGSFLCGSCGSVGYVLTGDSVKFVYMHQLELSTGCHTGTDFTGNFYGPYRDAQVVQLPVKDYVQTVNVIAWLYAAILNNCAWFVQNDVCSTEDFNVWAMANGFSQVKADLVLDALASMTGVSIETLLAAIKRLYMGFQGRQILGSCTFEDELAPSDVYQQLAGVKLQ

## COc1cccc2[nH]c(C(=O)N[C@@H](CC(C)C)C(=O)N[C@@H](C[C@@H]3CCNC3=O)C(=O)CO)cc12 [PF-00835231]
HKU1-CoV 3CL^pro
  Ki: 0.85 ± 0.24 nM
HKU5-CoV 3CL^pro; [Compound F2] 1.95312 nM
  Initial Velocity: 0.9802 and 1.028 and 0.9544
HKU5-CoV 3CL^pro; [Compound F2] 3.90625 nM
  Initial Velocity: 0.9722 and 0.992 and 0.9888
HKU5-CoV 3CL^pro; [Compound F2] 7.8125 nM
  Initial Velocity: 0.8869 and 0.9497 and 0.9402
HKU5-CoV 3CL^pro; [Compound F2] 20 nM
  Initial Velocity: 0.7838 and 0.8106 and 0.827
HKU5-CoV 3CL^pro; [Compound F2] 30 nM
  Initial Velocity: 0.6911 and 0.6076 and 0.6927
HKU5-CoV 3CL^pro; [Compound F2] 31.25 nM
  Initial Velocity: 0.6277 and 0.6613 and 0.6251
HKU5-CoV 3CL^pro; [Compound F2] 40 nM
  Initial Velocity: 0.5119 and 0.5104 and 0.5524
HKU5-CoV 3CL^pro; [Compound F2] 50 nM
  Initial Velocity: 0.32 and 0.3287 and 0.3636
HKU5-CoV 3CL^pro; [Compound F2] 62.5 nM
  Initial Velocity: 0.1843 and 0.2599 and 0.2229
HKU5-CoV 3CL^pro; [Compound F2] 80 nM
  Initial Velocity: 0.01707 and 0.01468 and 0.01576
HKU5-CoV 3CL^pro; [Compound F2] 100 nM
  Initial Velocity: 0.01024 and 0.007665 and 0.009516
HKU5-CoV 3CL^pro; [Compound F2] 200 nM
  Initial Velocity: 0.003343 and 0.002684 and 0.002549
HKU5-CoV 3CL^pro; [Compound F2] 300 nM
  Initial Velocity: 0.000987 and 0.001807 and 0.00196
HKU5-CoV 3CL^pro; [Compound F2] 400 nM
  Initial Velocity: 0.002007 and 0.00134 and 0.002594
HKU5-CoV 3CL^pro; mean ± SEM
  Ki: 0.033 nM
HKU9-CoV 3CL^pro; [Compound F2] 1.95312 nM
  Initial Velocity: 0.9878 and 0.9959 and 0.983
HKU9-CoV 3CL^pro; [Compound F2] 3.90625 nM
  Initial Velocity: 0.9913 and 0.9924 and 0.95
HKU9-CoV 3CL^pro; [Compound F2] 7.8125 nM
  Initial Velocity: 0.9224 and 0.9795 and 0.9137
HKU9-CoV 3CL^pro; [Compound F2] 20 nM
  Initial Velocity: 0.886 and 0.9243 and 0.93
HKU9-CoV 3CL^pro; [Compound F2] 30 nM
  Initial Velocity: 0.8569 and 0.8538 and 0.879
HKU9-CoV 3CL^pro; [Compound F2] 31.25 nM
  Initial Velocity: 0.8589 and 0.8929 and 0.8492
HKU9-CoV 3CL^pro; [Compound F2] 40 nM
  Initial Velocity: 0.8139 and 0.8202 and 0.8114
HKU9-CoV 3CL^pro; [Compound F2] 50 nM
  Initial Velocity: 0.7816 and 0.7894 and 0.7901
HKU9-CoV 3CL^pro; [Compound F2] 60 nM
  Initial Velocity: 0.7312 and 0.6789 and 0.7455
HKU9-CoV 3CL^pro; [Compound F2] 62.5 nM
  Initial Velocity: 0.7579 and 0.8162 and 0.7406
HKU9-CoV 3CL^pro; [Compound F2] 80 nM
  Initial Velocity: 0.682 and 0.6702 and 0.6841
HKU9-CoV 3CL^pro; [Compound F2] 100 nM
  Initial Velocity: 0.6302 and 0.62 and 0.5903
HKU9-CoV 3CL^pro; [Compound F2] 200 nM
  Initial Velocity: 0.2879 and 0.279 and 0.2522
HKU9-CoV 3CL^pro; [Compound F2] 1000 nM
  Initial Velocity: 0.000466 and 0.000256
HKU9-CoV 3CL^pro; mean ± SEM
  Ki: 0.74 ± 0.68 nM
IBV-CoV 3CL^pro
  Ki: 4 ± 0.37 nM
IBV-CoV 3CL^pro; [Compound F2] 1.95312 nM
  Initial Velocity: 0.9151 and 0.9223 and 0.9303
IBV-CoV 3CL^pro; [Compound F2] 3.90625 nM
  Initial Velocity: 0.8719 and 0.9093 and 0.9026
IBV-CoV 3CL^pro; [Compound F2] 7.8125 nM
  Initial Velocity: 0.7237 and 0.7704 and 0.7494
IBV-CoV 3CL^pro; [Compound F2] 31.25 nM
  Initial Velocity: 0.2801 and 0.2824 and 0.2905
IBV-CoV 3CL^pro; [Compound F2] 62.5 nM
  Initial Velocity: 0.09406 and 0.0968 and 0.1078
IBV-CoV 3CL^pro; [Compound F2] 250 nM
  Initial Velocity: 0.02135 and 0.01561 and 0.01396
CYP2B6; CYP 2B6, 0.1 µM, 30-Minute Preincubation, 0.1 µM
  Percent of Control Activity: 95.8%
CYP2B6; CYP 2B6, 0.1 µM, Zero-Minute Preincubation, 0.1 µM
  Percent of Control Activity: 102.2% and 99.6%
CYP2B6; CYP 2B6, 0.214 µM, 30-Minute Preincubation, 0.214 µM
  Percent of Control Activity: 99.2% and 94.6%
CYP2B6; CYP 2B6, 0.214 µM, Zero-Minute Preincubation, 0.214 µM
  Percent of Control Activity: 97.5% and 98.9%
CYP2B6; CYP 2B6, 0.979 µM, 30-Minute Preincubation, 0.979 µM
  Percent of Control Activity: 92.8% and 97.7%
CYP2B6; CYP 2B6, 0.979 µM, Zero-Minute Preincubation, 0.979 µM
  Percent of Control Activity: 99.5% and 102.1%
CYP2B6; CYP 2B6, 2.09 µM, Zero-Minute Preincubation, 2.09 µM
  Percent of Control Activity: 101.6%
CYP2B6; CYP 2B6, 4.48 µM, 30-Minute Preincubation, 4.48 µM
  Percent of Control Activity: 102.3% and 98.3%
CYP2B6; CYP 2B6, 4.48 µM, Zero-Minute Preincubation, 4.48 µM
  Percent of Control Activity: 96.6%
CYP2B6; CYP 2B6, 20.5 µM, 30-Minute Preincubation, 20.5 µM
  Percent of Control Activity: 88.5% and 89.3%
CYP2B6; CYP 2B6, 20.5 µM, Zero-Minute Preincubation, 20.5 µM
  Percent of Control Activity: 90.2% and 87.9%
CYP2B6; CYP 2B6, 43.8 µM, 30-Minute Preincubation, 43.8 µM
  Percent of Control Activity: 89.3% and 86.6%
CYP2B6; CYP 2B6, 43.8 µM, Zero-Minute Preincubation, 43.8 µM
  Percent of Control Activity: 84.2% and 79.6%
CYP2B6; CYP 2B6, 93.5 µM, 30-Minute Preincubation, 93.5 µM
  Percent of Control Activity: 69.4% and 77.3%
CYP2B6; CYP 2B6, 93.5 µM, Zero-Minute Preincubation, 93.5 µM
  Percent of Control Activity: 73.2% and 72.0%
CYP2B6; CYP 2B6, 200 µM, 30-Minute Preincubation, 200 µM
  Percent of Control Activity: 59.5% and 60.0%
CYP2B6; CYP 2B6, 200 µM, Zero-Minute Preincubation, 200 µM
  Percent of Control Activity: 54.6% and 55.4%
CYP2B6; [3]
  activity at 0.1 µM: 102%
  activity at 0.214 µM: 103%
  activity at 0.979 µM: 100%
  activity at 2.09 µM: 101%
  activity at 4.48 µM: 103%
  activity at 20.5 µM: 91.3%
  activity at 43.8 µM: 87.1%
  activity at 93.5 µM: 73.5%
  activity at 200 µM: 59%
CYP2B6; [4]
  activity at 0.1 µM: 104%
  activity at 0.214 µM: 103%
  activity at 0.979 µM: 105%
  activity at 2.09 µM: 105%
  activity at 4.48 µM: 100%
  activity at 20.5 µM: 91.9%
  activity at 43.8 µM: 86.4%
  activity at 93.5 µM: 73.7%
  activity at 200 µM: 55.5%
CYP2B6; human, human liver microsomes, pH 7.4, probe bupropion (hydroxylation), at approximately KM
  IC50: > 200000 nM
VeroE6-EGFP cells; African green monkey
  CC50: > 50000 nM
VeroE6-EGFP cells; monkey
  CC50: > 50000 nM
In vitro; African green monkey, CC50
  CC50: > 100000 nM
In vitro; monkey, CC50 GeoMean (95% CI)
  CC50: > 100000 nM
[1]; Microsomal protein 0.806mg/ml, individual replicates
  fu, human liver microsomal binding: 0.70 and 0.77
[1]; clearance input
  HLM microsomal binding: 0.75
[1]; human liver microsomal binding, Geomean, Microsomal protein 0.806mg/ml
  fraction unbound at 6 h: 0.75
[1]; human liver microsomal binding, Microsomal protein 0.806mg/ml, individual replicates
  fraction unbound at 6 h: 0.84
[1]; microsomal protein 0.806mg/ml, individual replicates n=1-4
  fraction unbound at 6 h: 0.7
[2]; male rats, 4 days continuous IV infusion
  tolerated dose (highest feasible dose tested): 246 mg/kg/day
[2]; non-adverse
  cholesterol vs controls: 1.3 x
  mean triglycerides vs controls: 1.9-3.6 x
  phosphorus vs controls: 1.1 x

— PMC8523698, “Preclinical characterization of an intravenous coronavirus 3CL protease inhibitor for the potential treatment of COVID19” (Nature Communications, 2021)
